Laboratory results published in patent US10203334B2, “Methods and compositions related to nucleic acid binding assays” (Nubad, LLC, priority 2012, dated 2019).

Tested on: A-site RNA oligonucleotide (SEQ ID No. 1)
Format: physicochemical, E. coli
Procedure: The effect of A-site rRNA oligonucleotide (SEQ ID No. 1) on the absorbance spectra of fluorescein-neomycin at pH 7.1 was recorded in FIG. 7. The absorbance spectra of 3.0 mM fluorescein-neomycin in 20 mM MOPSO, 0.4 mM EDTA, 50 mM NaCl at pH 7.1 with the addition of 0 mM (112), 1.1 mM (114), 2.2 mM (116) or 3.3 mM (118) of A-site oligonucleotide (SEQ ID NO. 1), respectively is shown in FIG. 7A. Absorbance at 490 nm of fluorescein-neomycin:A-site complex as function of pH is show in FIG. 7B, with 3.0 mM fluorescein-neomycin complexed with 3.3 mM A-site oligonucleotide (SEQ ID No. 1) in 20 mM MOPSO, 0.4 mM EDTA, 50 mM NaCl at the indicated pH values.
With increasing pH, fluorescein-neomycin undergoes a transition between mono-anion and di-anion species. Fluorescein-neomycin concentration was 10 μM in 100 mM NaCl, 10 mM SC, 0.5 mM EDTA. As indicated by its absorbance spectra in FIG. 8A, the F-neo transitions from a mono-anion to a di-anion with increasing pH. FIG. 8B compares the absorbance spectra between the mono-anion and di-anion species of fluorescein neomycin. […] The absorbance peak of about 490 nm in FIGS. 8A and 8B is consistent with the phenolate species of fluorescein. The pKa for the equilibrium of the phenol and phenolate forms of F-neo (42a) was measured by evaluating the absorbance spectrum as a function of pH and shown to be 6.84. […] When monitoring the absorption spectrum in the presence of the A-site RNA (SEQ ID No. 1), a reduction in A490 consistent with the change in pKa was observed. This A490 reduction is consistent with a shift in equilibrium towards the protonated non-fluorescent form of fluorescein-neomycin upon binding to A-site. […] This shift in pKa causes a change in the fluorescence intensity of F-neo (42a).
The following equilibrium can be used to explain the probe function: FHNeo+Base=F(−)Neo+BH^+ Eq. (2) where FHNeo represents the protonated form of F-neo (42a). Upon binding to A-site RNA, F(−)Neo is destabilized by the negative potential of the RNA backbone, shifting the equilibrium towards FHNeo. Thus the binding of F-neo (42a) to RNA raises the pKa, making F-neo (42a) a weaker acid.
The local electrostatic potential (Ψ) in the major groove is given by the following Equation 3. Ψ=−[R·T·ln 10/(NA·e)]ΔpKa Eq. (3) Where ΔpKa is the difference between the free Fluorescein-neomycin and the Fluorescein-neomycin in the presence of the electrostatic environment, R is the universal gas constant, T is the absolute temperature in kelvin, NA is the Avogadro constant, and e is the elementary charge. R=8.312 J mol−1K−1, T=298.2K, NA=6.023×10^23 and e=1.602×10^−19; Ψ is expressed in mV. […] Based on this Δpka of 0.86, the electrostatic potential of the microenvironment for the fluorescein moiety in the complex is determined to be −50.9 mV.

Compound: NCC1O[C@H](OC2C(O)C(OC3C(O)[C@H](N)CC(N)[C@H]3O[C@H]3OC(CN)[C@@H](O)C(O)C3N)O[C@@H]2CSCCNC(=O)CCSCC(=O)Nc2ccc(-c3c4ccc(=O)cc-4oc4cc(O)ccc34)c(C(=O)O)c2)C(N)C(O)[C@@H]1O (stereo partly shown) [F-neo (42a), Neomycin-Fluorescein Conjugate]
- electrostatic potential of the microenvironment for the fluorescein moiety in the complex (calculated from Δpka (Eq. 3)): −50.9 mV
- Δpka (complex versus free probe): 0.86
- apparent pKa of F-neo/A-site oligonucleotide complex (pH-dependent absorbance spectra): 7.7
- upward shift of the pKa upon binding of A-site (titration curve of A490): approximately one
